In general, melting point refers to the temperature of the solid-liquid transition. One may read the IC50 as the concentration needed to halve the response being measured. What is called EC50 is the concentration giving half of the maximal effect. Low readings indicate greater potency, high ones weaker potency.

Molecules are shown by their SMILES. Entries after “also recorded” stand apart in the source; their conditions may differ. Where two headings read alike, the source gives them in different places.

These results are taken from paper PMC7996328, “Design, Synthesis, and Biological Evaluation of a Series of 5- and 7-Hydroxycoumarin Derivatives as 5-HT1A Serotonin Receptor Antagonists” (Pharmaceuticals, 2021).

One data set has as its target T1, 5-HT1A receptor (Rattus norvegicus, UniProt P19327).
T1 construct: Hippocampal homogenates (15 μg/mL) were added to each tube as the 5-HT1A receptor source; from tissue; host or cells: rat hippocampus (male Sprague-Dawley), membrane homogenate
T1 sequence (P19327 1-422): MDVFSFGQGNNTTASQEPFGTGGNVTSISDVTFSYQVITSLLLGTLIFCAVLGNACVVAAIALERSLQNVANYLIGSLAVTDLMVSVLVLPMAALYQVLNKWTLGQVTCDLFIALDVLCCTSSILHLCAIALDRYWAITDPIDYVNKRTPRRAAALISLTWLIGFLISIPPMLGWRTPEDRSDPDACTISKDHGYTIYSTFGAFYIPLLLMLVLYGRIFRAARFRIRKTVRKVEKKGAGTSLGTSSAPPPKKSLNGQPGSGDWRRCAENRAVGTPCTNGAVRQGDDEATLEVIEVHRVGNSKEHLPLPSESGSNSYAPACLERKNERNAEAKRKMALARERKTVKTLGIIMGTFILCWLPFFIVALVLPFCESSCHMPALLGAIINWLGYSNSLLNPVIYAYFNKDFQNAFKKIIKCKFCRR
Nature of the data set: Antagonist activity for the 5-HT1A receptor, [35S]GTPγS assay in hippocampal homogenates. Type of data set: biochemical. To be noted: 8-OH-DPAT 1.4 × 10^−7 M, mean ± SEM. The method, then:
Male Sprague–Dawley rats were decapitated, their brains removed, and placed on ice. Hippocampi were dissected and homogenized with a glass homogenizer in 30 vol. ice-cold TED buffer (50 mM Tris-HCl, 1 mM EDTA, 1mM dithiotheritol, pH 7.4). Next, the homogenate was centrifuged at 21,000× g for 30 min at 4 °C. […] The suspension was centrifuged again at 21,000× g for 30 min at 4 °C. The pellet was resuspended in 30 vol. TED buffer (pH 7.4) and the centrifugation step was repeated. The final pellet was suspended in 10 vol 50 mM Tris-HCl (pH 7.4) and stored at −80 °C until use.
Serial dilutions of the compounds tested (10^−10–10^−5 M) were incubated in triplicate with 0.8 nM [^35S]GTPγS in assay buffer (50 mM Tris-HCl, pH = 7.4, 1 mM EGTA, 3 mM MgCl2, 100 mM NaCl, 30 µM GDP) and 8-OH-DPAT (final concentration 1.4 × 10^−7 M) in the final assay volume of 250 µL. Hippocampal homogenates (15 μg/mL) were added to each tube as the 5-HT1A receptor source. […] Non-specific binding was determined with 10 µM of unlabeled GTPγS. […] Next, 96-well Unifilter® Plates (Perkin Elmer, Waltham, MA, USA) were presoaked for 1 h with 50 mM Tris-HCl (pH = 7.4) before harvesting. The reaction was terminated by vacuum filtration onto filter plates with the FilterMate Harvester® (Perkin Elmer, Waltham, MA, USA). The samples were then rapidly washed with 2 mL of 50 mM Tris-HCl (pH = 7.4) buffer. Filter plates were dried for 2 h at 50 °C. After drying, 45 µL of EcoScint-20 scintillant (Perkin Elmer) was added to every well. Radioactivity was counted in a Trilux MicroBeta^2 counter (Perkin Elmer). Data were analyzed with GraphPad Prism 5.0 software (GraphPad Software, San Diego, CA, USA, www.graphpad.com). Curves were fitted with a one-site non-linear regression model. Efficacy (Emax) and half maximal inhibitory concentration (IC50) were calculated from the Cheng–Prusoff equation and expressed as means ± SEM.
On the technique in general: GTPγS resists hydrolysis and so accumulates on activated G proteins.

The target in the next data set is T2, 5-HT2A receptor (Rattus norvegicus, UniProt P14842).
T2 construct: from tissue; host or cells: rat frontal cortex (male SD), membrane homogenate
T2 sequence (P14842 whole entry): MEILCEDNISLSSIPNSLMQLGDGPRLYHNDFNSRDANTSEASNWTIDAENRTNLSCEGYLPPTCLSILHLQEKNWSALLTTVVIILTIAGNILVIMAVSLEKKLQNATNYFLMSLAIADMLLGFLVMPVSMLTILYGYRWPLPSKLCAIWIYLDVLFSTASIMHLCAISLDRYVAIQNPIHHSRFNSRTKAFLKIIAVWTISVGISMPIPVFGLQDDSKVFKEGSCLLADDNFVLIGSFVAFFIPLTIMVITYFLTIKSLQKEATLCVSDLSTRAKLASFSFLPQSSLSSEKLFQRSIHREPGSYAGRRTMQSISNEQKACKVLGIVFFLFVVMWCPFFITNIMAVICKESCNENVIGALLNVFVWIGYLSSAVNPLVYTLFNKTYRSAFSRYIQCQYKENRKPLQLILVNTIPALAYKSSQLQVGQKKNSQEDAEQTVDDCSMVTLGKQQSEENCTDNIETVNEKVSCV
Nature of the data set: 5-HT2A competition binding assay, [3H]ketanserin, frontal cortex homogenates. To be noted: [3H]ketanserin 1 nM. The method, then:
Male SD rats were decapitated and their brains removed and placed on ice. Frontal cortices were homogenized with a glass homogenizer in 30 vol ice-cold homogenization buffer (50 mM Tris-HCl. 1 mM EDTA. 5 mM MgCl2. pH 7.4). Next, the homogenate was centrifuged at 20,000× g for 15 min at 4 °C. […] The suspension was again centrifuged at 20,000× g for 15 min at 4 °C. The pellet was resuspended in 10 vol. 50 mM Tris-HCl (pH 7.4) and the centrifugation step was repeated. The final pellet was suspended in 10 vol 50 mM Tris-HCl (pH 7.4) and stored at −80 °C.
Non-specific binding was determined in the presence of 10 μM mianserin. After incubation, the reaction mixture was deposited onto UniFilter-96 GF/B plates with the aid of a FilterMate-96 Harvester. Filter plates were presoaked beforehand with 0.4% PEI for 1 h. Next, each filter well was washed with 1.75 mL of 50 mM Tris-HCl (pH 7.4) and left to dry on a heating block set to 50 °C for 2 h. Then 45 µL of Microscint-20 scintillation fluid was added to each filter well and left to equilibrate overnight. Filter-bound radioactivity was counted in a MicroBeta^2 Microplate Counter. Binding curves were fitted with one site non-linear regression. Affinity was presented as the inhibitory constant (pKi ± SEM and Ki ± SEM) from two or three separate experiments.

Where [1] appears, read: read-out: Ki (nM ± SEM) (converted).
Where [2] appears, read: read-out: pKi (M ± SEM) (converted).

`Cc1cc(OCCCCCBr)c2c(C)cc(=O)oc2c1` [Compound 1, 5-(5-bromopentyloxy)-4,7-dimethyl-2H-chromen-2-one] showed a melting point of 99 to 101 °C.
`COc1ccccc1N1CCN(CCCCCOc2cc(C)cc3oc(=O)cc(C)c23)CC1` [Compound 1a, 5-(5-(4-(2-methoxyphenyl)piperazin-1-yl)pentyloxy)-4,7-dimethyl-2H-chromen-2-one] displayed a melting point of 66 to 68 °C. The concentration for half-maximal inhibition (IC50) at 5-HT1A receptor is 0.0316 µM. On 5-HT1A receptor (antagonistic activity), the response was half-maximal at 29.4 ± 7.3 nM (EC50). For the same molecule, at 5-HT2A receptor (setting [1]), the Ki is 776 ± 187 nM. Besides, on 5-HT2A receptor (setting [2]), the Ki was 644 nM.
In the case of `Cc1cc(OCCCCCN2CCN(c3ccccc3F)CC2)c2c(C)cc(=O)oc2c1` [Compound 1b, 5-(5-(4-(2-fluorophenyl)piperazin-1-yl)pentyloxy)-4,7-dimethyl-2H-chromen-2-one], the melting point lay in the range of 106 to 108 °C. On 5-HT1A receptor, the IC50 is 1 µM. The molecule further had an EC50 at 5-HT1A receptor (antagonistic activity) of 980 ± 207 nM. Also, the Ki on 5-HT2A receptor (setting [1]) was 1260 ± 479 nM.
Turning to `COc1cccc(N2CCN(CCCCCOc3cc(C)cc4oc(=O)cc(C)c34)CC2)c1` [Compound 1c, 5-(5-(4-(3-methoxyphenyl)piperazin-1-yl)pentyloxy)-4,7-dimethyl-2H-chromen-2-one], the melting point was 103 to 105 °C. Also, the 50% inhibitory concentration (IC50) against 5-HT1A receptor was 1.58 µM. For the same molecule, a half-maximal response on 5-HT1A receptor (antagonistic activity) (EC50) required 1700 ± 358 nM. The Ki at 5-HT2A receptor (setting [1]) was 610 ± 139 nM.
In turn, `Cc1cc(OCCCCCN2CCN(c3cccc(F)c3)CC2)c2c(C)cc(=O)oc2c1` [Compound 1e, 5-(5-(4-(3-fluorophenyl)piperazin-1-yl)pentyloxy)-4,7-dimethyl-2H-chromen-2-one] gave a melting point of 101 to 102 °C. At 5-HT1A receptor, this molecule showed a concentration for half-maximal inhibition (IC50) of 25.1 µM. The molecule further returned a concentration giving a half-maximal response (EC50) at 5-HT1A receptor (antagonistic activity) of 24300 nM. For the same molecule, the Ki at 5-HT2A receptor (setting [1]) was 2350 ± 673 nM.
The like results for `Cc1cc(OCCCCCN2CCN(c3ccccc3Br)CC2)c2c(C)cc(=O)oc2c1` [Compound 1f, 5-(5-(4-(2-bromophenyl)piperazin-1-yl)pentyloxy)-4,7-dimethyl-2H-chromen-2-one] were, in that order, 143 to 144 °C, 20 µM, 20900 nM and 1550 ± 323 nM.
The like results for `Cc1cc(C)cc(N2CCN(CCCCCOc3cc(C)cc4oc(=O)cc(C)c34)CC2)c1` [Compound 1h, 5-(5-(4-(3,5-dimethylphenyl)piperazin-1-yl)pentyloxy)-4,7-dimethyl-2H-chromen-2-one] were, in that order, 104 to 106 °C, 200 µM, 198000 nM and 1820 ± 636 nM.
`Cc1cc(OCCCCCN2CCN(c3cccc(Cl)c3Cl)CC2)c2c(C)cc(=O)oc2c1` [Compound 1i, 5-(5-(4-(2,3-dichlorophenyl)piperazin-1-yl)pentyloxy)-4,7-dimethyl-2H-chromen-2-one] came in with a melting point of 162 to 163 °C. The molecule further had an IC50 against 5-HT1A receptor of 15.8 µM. The EC50 at 5-HT1A receptor (antagonistic activity) is 13700 nM. At 5-HT2A receptor (setting [1]), the Ki was 1450 ± 653 nM.
`Cc1cc(OCCCCCN2CCN(c3ccccc3C#N)CC2)c2c(C)cc(=O)oc2c1` [Compound 1j, 5-(5-(4-(2-cyanophenyl)piperazin-1-yl)pentyloxy)-4,7-dimethyl-2H-chromen-2-one] showed a melting point of 148 to 149 °C. Also, the IC50 on 5-HT1A receptor is 79.4 µM. The same molecule came in with an EC50 at 5-HT1A receptor (antagonistic activity) of 74700 nM. On 5-HT2A receptor (setting [1]), the Ki was 79 ± 18 nM.
The molecule `Cc1cc(OCCBr)c2c(C)cc(=O)oc2c1` [Compound 2, 5-(2-bromoethoxy)-4,7-dimethyl-2H-chromen-2-one] displayed a melting point of 121 to 123 °C.
On to `COc1ccccc1N1CCN(CCOc2cc(C)cc3oc(=O)cc(C)c23)CC1` [Compound 2a, 5-(2-(4-(2-methoxyphenyl)piperazin-1-yl)ethoxy)-4,7-dimethyl-2H-chromen-2-one], for which the melting point fell in the range of 146 to 148 °C. The same molecule gave a half-maximal inhibitory concentration (IC50) at 5-HT1A receptor of 2 µM. Moreover, the EC50 on 5-HT1A receptor (antagonistic activity) turned out to be 1880 ± 427 nM. For the same molecule, the Ki on 5-HT2A receptor (setting [1]) is 1710 ± 582 nM.
`Cc1cc(OCCN2CCN(c3ccccc3F)CC2)c2c(C)cc(=O)oc2c1` [Compound 2b, 5-(2-(4-(2-fluorophenyl)piperazin-1-yl)ethoxy)-4,7-dimethyl-2H-chromen-2-one] returned a melting point of 121 to 123 °C. Also, the “pIC50 ± SEM” value against 5-HT1A receptor was “no activity”. In addition, the “EC50 (nM ± SEM)” value at 5-HT1A receptor (antagonistic activity) is listed as “did not show any activity; also recorded: no activity”. The Ki at 5-HT2A receptor (setting [1]) was 2130 ± 662 nM.
`COc1cccc(N2CCN(CCOc3cc(C)cc4oc(=O)cc(C)c34)CC2)c1` [Compound 2c, 5-(2-(4-(3-methoxyphenyl)piperazin-1-yl)ethoxy)-4,7-dimethyl-2H-chromen-2-one] showed a melting point of 124 to 125 °C. The molecule also gave a 50% inhibitory concentration (IC50) against 5-HT1A receptor of 20 µM. At 5-HT1A receptor (antagonistic activity), this molecule yielded a concentration for a half-maximal effect (EC50) of 19100 nM. Besides, the Ki at 5-HT2A receptor (setting [1]) is 458 ± 109 nM. Moreover, the Ki on 5-HT2A receptor (setting [2]) is 468 nM.
As for `CC(=O)c1c(C)cc2oc(=O)cc(C)c2c1OCCCCCBr` [Compound 3, 6-acetyl-5-(5-bromopentyloxy)-4,7-dimethyl-2H-chromen-2-one], the melting point lay in the range of 78 to 80 °C.
In the case of `COc1ccccc1N1CCN(CCCCCOc2c(C(C)=O)c(C)cc3oc(=O)cc(C)c23)CC1` [Compound 3a, 6-acetyl-5-(5-(4-(2-methoxyphenyl)piperazin-1-yl)pentyloxy)-4,7-dimethyl-2H-chromen-2-one], the half-maximal inhibitory concentration (IC50) at 5-HT1A receptor is 0.0398 µM. In addition, on 5-HT1A receptor (antagonistic activity), the EC50 stood at 39.4 ± 3.63 nM. The Ki at 5-HT2A receptor (setting [1]) was 641 ± 128 nM.
In the case of `CC(=O)c1c(C)cc2oc(=O)cc(C)c2c1OCCBr` [Compound 4, 6-acetyl-5-(2-bromoethoxy)-4,7-dimethyl-2H-chromen-2-one], the melting point was in the range of 168 to 169 °C.
`CC(=O)c1c(C)cc2oc(=O)cc(C)c2c1OCCN1CCN(c2cc(C)ccc2C)CC1` [Compound 4d, 6-acetyl-5-(2-(4-(2,5-dimethylphenyl)piperazin-1-yl)ethoxy)-4,7-dimethyl-2H-chromen-2-one] had an IC50 at 5-HT1A receptor of 79.4 µM. At 5-HT1A receptor (antagonistic activity), this molecule showed a concentration for a half-maximal effect (EC50) of 74700 nM. Besides, at 5-HT2A receptor (setting [1]), the Ki was 11900 nM.
In turn, `CC(=O)c1c(C)cc2oc(=O)cc(C)c2c1OCCN1CCN(c2cc(C)cc(C)c2)CC1` [Compound 4h, 6-acetyl-5-(2-(4-(3,5-dimethylphenyl)piperazin-1-yl)ethoxy)-4,7-dimethyl-2H-chromen-2-one] had an IC50 against 5-HT1A receptor of 39.8 µM. Besides, the EC50 at 5-HT1A receptor (antagonistic activity) stood at 26800 nM. On 5-HT2A receptor (setting [1]), the Ki was 1920 ± 382 nM.
In turn, `COc1cccc(N2CCN(CCCCCOc3ccc4c(C)cc(=O)oc4c3C(C)=O)CC2)c1` [Compound 5c, 8-acetyl-7-(5-[4-(3-methoxyphenyl)piperazin-1-yl]penthoxy)-4-methylchromen-2-one] gave an IC50 on 5-HT1A receptor of 25.1 µM. Besides, on 5-HT1A receptor (antagonistic activity), the concentration giving a half-maximal response (EC50) was 22900 nM. For the same molecule, the Ki at 5-HT2A receptor (setting [1]) was 144 ± 38 nM.
For the molecule `CC(=O)c1c(OCCBr)ccc2c(C)cc(=O)oc12` [Compound 6, 8-acetyl-7-(2-bromoethoxy)-4-methylchromen-2-one], the melting point fell in the range of 140 to 142 °C.
